Tests used:
human CYP11B1 = target: T1, human CYP11B1 (Homo sapiens, UniProt P15538); test: G-402 cellular enzyme assay, human CYP11B1 (cortisol release, HTRF); assay type: cell-based; conditions: G-402 cells expressing human CYP11B1; 1 μM Deoxycortisol; 16 h
T1 construct: expressed in transfected cells
T1 sequence (P15538 25-503): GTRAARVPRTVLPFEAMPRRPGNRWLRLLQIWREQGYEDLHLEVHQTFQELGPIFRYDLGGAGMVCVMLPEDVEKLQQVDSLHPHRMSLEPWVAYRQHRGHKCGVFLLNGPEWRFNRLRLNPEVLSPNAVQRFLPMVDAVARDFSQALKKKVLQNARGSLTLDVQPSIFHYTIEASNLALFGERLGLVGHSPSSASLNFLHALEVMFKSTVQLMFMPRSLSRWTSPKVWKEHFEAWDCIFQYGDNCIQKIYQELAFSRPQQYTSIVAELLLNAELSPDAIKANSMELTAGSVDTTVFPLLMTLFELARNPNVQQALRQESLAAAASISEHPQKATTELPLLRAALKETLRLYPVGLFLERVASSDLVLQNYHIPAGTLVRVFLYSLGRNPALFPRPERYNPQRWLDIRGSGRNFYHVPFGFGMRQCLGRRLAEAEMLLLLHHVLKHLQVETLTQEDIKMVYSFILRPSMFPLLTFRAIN
Excerpt: (§1) Herein we identified the use of the G-402 cell line as a host cell to ectopically express (transiently or stably) enzymes of the CYP11 family. Specifically we developed stable G-402 cells expressing ectopically human CYP11B1, human CYP11B2, human CYP11A1, cynomolgus CYP11B1 or cynomolgus CYP11B2 enzyme activity. Importantly, the identified cell line G-402 expresses co-factors (adrenodoxin and adrenodoxin reductase) important for the activity of the CYP11 family, and no relevant enzyme activity of the CYP11 family (in comparison to H295R cells) was detected in these cells. Therefore the G-402 cell line is uniquely suited as a host cell for the ectopic expression of enzymes from the CYP11 family.
(§2) G-402 cells can be obtained from ATCC(CRL-1440) and were originally derived from a renal leiomyoblastoma.
(§3) The expression plasmids contains the ORF for either human/cyno CYP11B1 or CYP11B2 under the control of a suitable promoter (CMV-promoter) and a suitable resistance marker (neomycin). Using standard techniques the expression plasmid is transfected into G-402 cells and these cells are then selected for expressing the given resistance markers. Individual cell-clones are then selected and assessed for displaying the desired enzymatic activity using 11-Deoxycorticosterone (Cyp11B2) or 11-Deoxycortisol (Cyp11B1) as a substrate.
(§4) G-402 cells expressing CYP11 constructs were established as described above and maintained in McCoy's 5a Medium Modified, ATCC Catalog No. 30-2007 containing 10% FCS and 400 μg/ml G418 (Geneticin) at 37° C. under an atmosphere of 5% CO2/95% air. Cellular enzyme assays were performed in DMEM/F12 medium containing 2.5% charcoal treated FCS and appropriate concentration of substrate (0.3-10 uM 11-Deoxycorticosterone, 11-Deoxycortisol or Corticosterone). For assaying enzymatic activity, cells were plated onto 96 well plates and incubated for 16 h. An aliquot of the supernatant is then transferred and analyzed for the concentration of the expected product (Aldosterone for CYP11B2; Cortisol for CYP11B1). The concentrations of these steroids can be determined using HTRF assays from CisBio analyzing either Aldosterone or Cortisol.
(§5) Inhibition of the release of produced steroids can be used as a measure of the respective enzyme inhibition by test compounds added during the cellular enzyme assay. The dose dependent inhibition of enzymatic activity by a compound is calculated by means of plotting added inhibitor concentrations (x-axes) vs. measured steroid/product level (y-axes). The inhibition is then calculated by fitting the following 4-parameter sigmoidal function (Morgan-Mercer-Flodin (MMF) model) to the raw data points using the least squares method:
(§6) [formula] wherein A is the maximum y value, B is the EC50 factor determined using XLFit, C is the minimum y value and D is the slope value.
(§7) EC50 values for compounds claimed herein were tested with the G402-based assay system described. Cyp11B2 enzyme activity was tested in presence of 1 μM Deoxycorticosterone and variable amounts of inhibitors; Cyp11B1 enzyme activity was tested in presence of 1 μM Deoxycortisol and variable amounts of inhibitors.

human CYP11B2 = target: T2, human CYP11B2 (Homo sapiens, UniProt P19099); test: G-402 cellular enzyme assay, human CYP11B2 (aldosterone release, HTRF); assay type: cell-based; conditions: G-402 cells expressing human CYP11B2; 1 μM Deoxycorticosterone; 16 h
T2 construct: expressed in transfected cells
T2 sequence (P19099 25-503): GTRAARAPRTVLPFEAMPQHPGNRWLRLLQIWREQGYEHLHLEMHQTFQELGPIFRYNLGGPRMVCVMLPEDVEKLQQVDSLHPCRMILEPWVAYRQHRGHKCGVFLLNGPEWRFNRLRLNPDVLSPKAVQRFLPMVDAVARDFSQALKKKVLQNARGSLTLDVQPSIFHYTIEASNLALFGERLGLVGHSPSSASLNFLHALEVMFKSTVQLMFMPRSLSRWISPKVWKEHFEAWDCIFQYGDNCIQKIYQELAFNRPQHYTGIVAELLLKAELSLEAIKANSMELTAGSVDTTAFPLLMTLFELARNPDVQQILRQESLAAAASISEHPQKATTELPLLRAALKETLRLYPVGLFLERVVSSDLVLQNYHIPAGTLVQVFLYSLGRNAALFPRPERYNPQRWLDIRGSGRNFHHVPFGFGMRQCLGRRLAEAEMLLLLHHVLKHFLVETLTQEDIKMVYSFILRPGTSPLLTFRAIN
Excerpt: as §1, §2, §3, §4, §5, §6, §7

| SMILES | EC50 (human CYP11B1) [nM] | EC50 (human CYP11B2) [nM] |
| --- | --- | --- |
| CC(=O)N(C)c1ccc(C(=O)c2cncn2C(C)C)cc1 [Example 59, N-[4-(3-Isopropyl-3H-imidazole-4-carbonyl)-phenyl]-N-methyl-acetamide] | 5040 | 51.3 |
| CCn1cncc1C(=O)c1ccc(Cl)cc1 [Example 7, (4-Chloro-phenyl)-(3-ethyl-3H-imidazol-4-yl)-methanone] | 65.9 | 4.4 |
| Cn1cncc1C(=O)c1ccc(C#N)cc1 [Example 2, 4-(3-Methyl-3H-imidazole-4-carbonyl)-benzonitrile] | 368 | 11.6 |
| COc1cc(C(=O)c2cncn2C(C)C)ccc1SC [Example 61, (3-Isopropyl-3H-imidazol-4-yl)-(3-methoxy-4-methylsulfanyl-phenyl)-methanone] | 8.7 | 0.2 |
| O=C(c1ccc(Cl)c(F)c1)c1cncn1C1CC1 [Example 40, (4-Chloro-3-fluoro-phenyl)-(3-cyclopropyl-3H-imidazol-4-yl)-methanone] | 14.8 | 2.3 |
| N#Cc1ccc(-n2cncc2C(=O)c2ccc(Cl)cc2)cc1Cl [Example 77, 2-Chloro-4-[5-(4-chloro-benzoyl)-imidazol-1-yl]-benzonitrile] | 9.8 | 1.9 |
| CCC(C)n1cncc1C(=O)c1cccc(Cl)c1 (centres unmarked) [Example 28, (3-sec-Butyl-3H-imidazol-4-yl)-(3-chloro-phenyl)-methanone] | 22.7 | 14.1 |
| N#Cc1ccc(C(=O)c2cncn2C2CC2)cc1 [Example 18, 4-(3-Cyclopropyl-3H-imidazole-4-carbonyl)-benzonitrile] | 28.7 | 2.3 |
| CCn1cncc1C(=O)c1ccc(C#N)c(Cl)c1 [Example 46, 2-Chloro-4-(3-ethyl-3H-imidazole-4-carbonyl)-benzonitrile] | 25.4 | 2.3 |
| O=C(c1ccc(Cl)c(F)c1)c1cncn1-c1ccc(Cl)cc1 [Example 92, (4-Chloro-3-fluoro-phenyl)-[3-(4-chloro-phenyl)-3H-imidazol-4-yl]-methanone] | 132 | 3.2 |
| CC(C)n1cncc1C(=O)c1ccc(C#N)c(Cl)c1 [Example 49, 2-Chloro-4-(3-isopropyl-3H-imidazole-4-carbonyl)-benzonitrile] | 1 | 0.2 |
| CCn1cncc1C(=O)c1ccc(C(C)(C)C)cc1 [Example 35, (4-tert-Butyl-phenyl)-(3-ethyl-3H-imidazol-4-yl)-methanone] | 1690 | 3670 |
| C#Cc1ccc(C(=O)c2cncn2CC)cc1 [Example 48, (3-Ethyl-3H-imidazol-4-yl)-(4-ethynyl-phenyl)-methanone] | 33 | 4.3 |
| CCSc1ccc(C(=O)c2cncn2CC)cc1 [Example 69, (3-Ethyl-3H-imidazol-4-yl)-(4-ethylsulfanyl-phenyl)-methanone] | 329 | 84.4 |
| CC(C)n1cncc1C(=O)c1ccc(Cl)cc1 [Example 13, (4-Chloro-phenyl)-(3-isopropyl-3H-imidazol-4-yl)-methanone] | 5.6 | 2.1 |
| Cn1cncc1C(=O)c1ccc(C(F)(F)F)cc1 [Example 31, (3-Methyl-3H-imidazol-4-yl)-(4-trifluoromethyl-phenyl)-methanone] | 7840 | 197 |
| CCSc1ccc(C(=O)c2cncn2C)cc1 [Example 51, (4-Ethylsulfanyl-phenyl)-(3-methyl-3H-imidazol-4-yl)-methanone] | 3250 | 102 |
| Cn1cncc1C(=O)c1ccc2sccc2c1 [Example 44, Benzo[b]thiophen-5-yl-(3-methyl-3H-imidazol-4-yl)-methanone] | 1070 | 40.9 |
| Cn1cncc1C(=O)c1ccc(Br)cc1 [Example 68, (4-Bromo-phenyl)-(3-methyl-3H-imidazol-4-yl)-methanone] | 488 | 18.6 |
